Data published in patent US8686178B2, “Derivative of 18β-glycyrrhetinic acid apt to suppress cancer cells” (Kaohsiung Medical University, priority 2011, dated 2014).

Key:
NTUB1 cells [1] = experiment: Trial (F): mitochondrial membrane potential (JC-1) by flow cytometry; type: cell-based, human; details: 10 μM, 30 minutes, JC-1, NTUB1
Experimental: In trial (F), mitochondrial membrane potential (MMP) in NTUB1 cells is measured according to a journal article published by Martin et al., at 2009 in PloS one, in which a dysfunction of the mitochondria caused by ROS induced MPP decrease is supposed.
Referring to TABLE 6, the NTUB1 cells at a density of 3×10^5 cells/ml are prepared and assigned into 5 groups, including F1 to F5, to incubate in 10 μM carbonyl cyanide 3-chlorophenylhydrazone (CCCP), and 10, 25 and 50 μM of 25 respectively, for 30 minutes, followed by adding 1 μM of 5,5′,6,6′-tetrachloro-1,1′,3,3′-tetraethylbenzimidaolylcarbocyanine iodide (JC-1) (Molecular Probes, Eugene, Oreg., USA) in each group. Then, the NTUB1 cells in each group are washed with PBS buffer for 3 times, collected in PBS/2% BSA, washed twice by centrifugating at 800 g, 5 minutes and resuspending in 0.3 mL PBS/2% BSA, and finally analyzed by a FACSCalibur flow cytometer (Becton Dickinson), with the FACSCalibur flow cytometer determining and calculating a ratio of JC-1 aggregates (red fluorescence) to JC-1 monomers (green fluorescence) based on levels of MMP in each group.

[2] = system: human bladder cancer cell line NTUB1; experiment: Trial (A): cytotoxic effect, IC50 by median-effect analysis; type: cell-based; details: NTUB1 cells; for IC50: mean ± SD; for cytotoxic effect against cancer cell: with reference to TABLE 2
Source text: For the sake of proving therapeutic effects of the derivatives of 18β-glycyrrhetinic acid of the present invention, including 10, 11, 13-17 and 21-25, in treating of cancer, human bladder cancer cell line NTUB1, human prostate cancer cell line PC3 cataloged as CRL-1435 (reference to J. Formosan Med. Assoc. 1992; 91:608-13), and immortalized normal human urothelial cells SV-HUC1 cataloged as CRL-9520 are purchased from American Type Culture Collection (ATCC; Rockville, USA) and maintained in a culturing medium respectively till at a preferable density to carry out a serial of trials (comprising trial A to G) for evaluating cytotoxicities of the derivatives of 18β-glycyrrhetinic acid against cancer cells, and mechanisms thereof.
In the present invention, the NTUB1 and the PC3 is but not limit to be maintained in RPMI 1640 medium supplemented 10% fetal bovine serum (FBS), 100 unit/mL penicillin-G, 100 μg/mL streptomycin, and 2 mM L-glutamine, yet the SV-HUC1 is maintained in F12 medium supplemented with 10% fetal bovine serum (FBS), 100 unit/mL penicillin-G, 100 μg/mL streptomycin, and 2 mM L-glutamine, culturing at 37° C. in a humidified atmosphere containing 5% CO2 till at a density of 70% per well, followed by repeatedly suspending cells in each well with an ethylene diamine tetra-acetic acid buffer (EDTA buffer; Merck) and counting cell numbers.
In the present invention, the IC50 values of each group are presented as mean±standard deviation (SD).

NTUB1 cells [3] = experiment: Trial (C): synergy with cisplatin, MTT assay; type: cell-based, human; details: NTUB1, 72 hours; for cytotoxic effect applied individually (FIGS. 7, 8): single agent; for synergy with cisplatin (FIGS. 7, 8): 1-50 μM compound with 5/10 μM cisplatin
Experimental: Oncol: Semin. Orig. Invest. by maintaining the NTUB1 cells in various condition of medium (with reference to TABLE 3) at 37° C. for 72 hours, and determining cytotoxicities of each medium via MTT assay. In the trial (C), the viability rates of NTUB1 cells […] are also determined by the absorbance spectrometry at 540 nm with a MRX (DYNEXCO) microplate according to trial (B).

NTUB1 cells [4] = experiment: Trial (E): cell cycle progression by flow cytometry (propidium iodide); type: cell-based, human; parameters: Sub-G1 / G1: unit not given here; details: 50 μM, 24 hours, NTUB1
Experimental: In order to determine a relationship between the derivatives of 18β-glycyrrhetinic acid of the present invention and cell cycle arrest, trial (E) is carried out by analyzing cell cycle progression by flow cytometry. […] After that, cell cycle progression of each group is determined respectively by incubating with 50 μg/mL propidium iodide (Sigma, Co) and 50 μg/mL RNase A (Sigma, Co) in PBS at room temperature for 30 min, and analyzing by FACScan flow cytometer and Cell Quest sofeware.

N#CC(C#N)=NNc1cccc(Cl)c1 [CCCP, carbonyl cyanide 3-chlorophenylhydrazone, reference compound]
R1 (%) (NTUB1 cells [1]): 52.06%

CC1(C)[C@@H](O)CC[C@]2(C)[C@H]3C(=O)C=C4[C@@H]5C[C@@](C)(C(=O)O)CC[C@]5(C)CC[C@@]4(C)[C@]3(C)CC[C@@H]12 [Compound 1, 18β-glycyrrhetinic acid]
IC50 [2]: 27.3 ± 5.17 µM

CC1(C(=O)O)CCC2(C)CCC3(C)C(=CC(=O)C4C5(C)CCC(=O)C(C)(C)C5CCC43C)C2C1 (stereo not drawn) [Compound 2]
IC50 [2]: 18.6 ± 1.64 µM

COC(=O)C1(C)CCC2(C)CCC3(C)C(=CC(=O)C4C5(C)CCC(=O)C(C)(C)C5CCC43C)C2C1 (stereo not drawn) [Compound 3]
IC50 [2]: 56.5 ± 14.3 µM

CC1(C(=O)OCc2ccccc2)CCC2(C)CCC3(C)C(=CC(=O)C4C5(C)CCC(=O)C(C)(C)C5CCC43C)C2C1 (stereo not drawn) [Compound 4]
IC50 [2]: 20.2 ± 5.1 µM

CC1(C(=O)O)CCC2(C)CCC3(C)C(=CC(=O)C4C5(C)CCC(=O)OC(C)(C)C5CCC43C)C2C1 (stereo not drawn) [Compound 5]
IC50 [2]: 73.5 ± 35.1 µM

COC(=O)C1(C)CCC2(C)CCC3(C)C(=CC(=O)C4C5(C)CCC(=O)OC(C)(C)C5CCC43C)C2C1 (stereo not drawn) [Compound 6]
IC50 [2]: 24.3 ± 3.98 µM

CC1(C(=O)OCc2ccccc2)CCC2(C)CCC3(C)C(=CC(=O)C4C5(C)CCC(=O)OC(C)(C)C5CCC43C)C2C1 (stereo not drawn) [Compound 7]
IC50 [2]: 57.6 ± 8.8 µM

C=C(C)[C@@H]1CC[C@]2(C)[C@H](C(=O)C=C3[C@@H]4C[C@@](C)(C(=O)OC)CC[C@]4(C)CC[C@]32C)[C@@]1(C)CCC(=O)O [Compound 8]
IC50 [2]: 20.7 ± 4.97 µM

C=C(C)[C@@H]1CC[C@]2(C)[C@H](C(=O)C=C3[C@@H]4C[C@@](C)(C(=O)OCc5ccccc5)CC[C@]4(C)CC[C@]32C)[C@@]1(C)CCC(=O)O [Compound 9]
cytotoxic effect against cancer cell [2]: significantly suppress the growth of cancer cells with a lower concentrate | IC50 [2]: 2.34 ± 0.28 µM

C=C(C)C1CCC2(C)C(C(=O)C=C3C4CC(C)(C(=O)OC)CCC4(C)CCC32C)C1(C)CCC(=O)OC(C)C (stereo not drawn) [Compound 10, 3,4-seco-11-oxo-18β-olean-4(23),12-dien-3,30-dioic acid 3-isopropyl 30-methyl, ester]
IC50 [2]: 25.3 ± 2.28 µM

C=C(C)[C@@H]1CC[C@]2(C)[C@H](C(=O)C=C3[C@@H]4C[C@@](C)(C(=O)OC)CC[C@]4(C)CC[C@]32C)[C@@]1(C)CCC(=O)NC(C)C [Compound 11, 3-isopropyl carbamoyl-11-oxo-18β-3,4-seco-olean-4(23),12-dien 30-methyl ester]
IC50 [2]: 31.4 ± 0.55 µM

C=C(C)[C@@H]1CC[C@]2(C)[C@H](C(=O)C=C3[C@@H]4C[C@@](C)(C(=O)OCc5ccccc5)CC[C@]4(C)CC[C@]32C)[C@@]1(C)CCC(=O)OC [Compound 12, 3,4-seco-11-oxo-18β-olean-4(23), 12-dien-3,30-dioic acid 3-methyl-30-benzyl ester]
cytotoxic effect against cancer cell [2]: significantly suppress the growth of cancer cells with a lower concentrate | IC50 [2]: 9.41 ± 2.72 µM | cytotoxic effect applied individually (FIGS. 7, 8) (NTUB1 cells [3]): cytotoxic effects against to cancer cells | synergy with cisplatin (FIGS. 7, 8) (NTUB1 cells [3]): dramatic synergy

C=C(C)C1CCC2(C)C(C(=O)C=C3C4CC(C)(C(=O)OCc5ccccc5)CCC4(C)CCC32C)C1(C)CCC(=O)OCC (stereo not drawn) [Compound 13, 3,4-seco-11-oxo-18β-olean-4(23),12-dien-3,30-dioic acid 3-ethyl,30-benzyl ester]
IC50 [2]: 27.8 ± 6.48 µM

C=C(C)C1CCC2(C)C(C(=O)C=C3C4CC(C)(C(=O)OCc5ccccc5)CCC4(C)CCC32C)C1(C)CCC(=O)OC(C)C (stereo not drawn) [Compound 14, 3,4-seco-11-oxo-18β-olean-4(23),12-dien-3,30. dioic acid 3-isopropyl-30-benzyl ester]
IC50 [2]: 18.2 ± 1.58 µM

C=C(C)[C@@H]1CC[C@]2(C)[C@H](C(=O)C=C3[C@@H]4C[C@@](C)(C(=O)OCc5ccccc5)CC[C@]4(C)CC[C@]32C)[C@@]1(C)CCC(=O)NCC [Compound 15, 3-ethyl carbamoyl-11-oxo-18β-3,4-seco-olean-4(23),12-dien-30-benzyl ester]
IC50 [2]: 42.7 ± 11.2 µM

C=C(C)[C@@H]1CC[C@]2(C)[C@H](C(=O)C=C3[C@@H]4C[C@@](C)(C(=O)OCc5ccccc5)CC[C@]4(C)CC[C@]32C)[C@@]1(C)CCC(=O)NCCC [Compound 16, 3-propylcarbamoyl-11-oxo-18β-3,4-seco-olean-4(23),12-dien 30-benzyl ester]
IC50 [2]: 49.4 ± 11.5 µM

C=C(C)[C@@H]1CC[C@]2(C)[C@H](C(=O)C=C3[C@@H]4C[C@@](C)(C(=O)OCc5ccccc5)CC[C@]4(C)CC[C@]32C)[C@@]1(C)CCC(=O)NC(C)C [Compound 17, 3-isopropylcarbamoyl-11-oxo-18β-3,4-seco-olean-4(23), 12-dien 30-benzyl ester]
IC50 [2]: 30.1 ± 2.41 µM

CC(C)NC(=O)C1(C)CCC2(C)CCC3(C)C(=CC(=O)C4C5(C)CCC(=O)OC(C)(C)C5CCC43C)C2C1 (stereo not drawn) [Compound 18]
IC50 [2]: 25.7 ± 1.81 µM

C=C(C)[C@@H]1CC[C@]2(C)[C@H](C(=O)C=C3[C@@H]4C[C@@](C)(C(=O)NC(C)C)CC[C@]4(C)CC[C@]32C)[C@@]1(C)CCC(=O)O [Compound 19]
IC50 [2]: 17.5 ± 2.11 µM

C=C(C)[C@@H]1CC[C@]2(C)[C@H](C(=O)C=C3[C@@H]4C[C@@](C)(C(=O)NC(C)C)CC[C@]4(C)CC[C@]32C)[C@@]1(C)CCC(=O)OC [Compound 20, 30-Isopropylcarbamoyl-11-oxo-18β-3,4-seco-olean-4(23),12-diene 3-methyl ester]
IC50 [2]: 13.1 ± 5.27 µM | cytotoxic effect applied individually (FIGS. 7, 8) (NTUB1 cells [3]): cytotoxic effects against to cancer cells | synergy with cisplatin (FIGS. 7, 8) (NTUB1 cells [3]): dramatic synergy

C=C(C)[C@@H]1CC[C@]2(C)[C@H](C(=O)C=C3[C@@H]4C[C@@](C)(C(=O)NC(C)C)CC[C@]4(C)CC[C@]32C)[C@@]1(C)CCC(=O)OC(C)C [Compound 22, 30-isopropyl carbamoyl-11-oxo-18β-3,4-seco-olean-4(23),12-dien 3-isopropyl ester]
IC50 [2]: 29.2 ± 26.6 µM

C=C(C)[C@@H]1CC[C@]2(C)[C@H](C(=O)C=C3[C@@H]4C[C@@](C)(C(=O)NC(C)C)CC[C@]4(C)CC[C@]32C)[C@@]1(C)CCC(=O)NCCC [Compound 24, 30-isopropyl carbamoyl-11-oxo-18β-3,4-seco-olean-4(23), 12-dien 3-propyl carbamate]
IC50 [2]: > 50 µM

CC1(C(=O)Nc2ccccc2)CCC2(C)CCC3(C)C(=CC(=O)C4C5(C)CCC(=O)OC(C)(C)C5CCC43C)C2C1 (stereo not drawn) [Compound 26]
IC50 [2]: 16 ± 5.3 µM

C=C(C)[C@@H]1CC[C@]2(C)[C@H](C(=O)C=C3[C@@H]4C[C@@](C)(C(=O)Nc5ccccc5)CC[C@]4(C)CC[C@]32C)[C@@]1(C)CCC(=O)O [Compound 27]
cytotoxic effect against cancer cell [2]: significantly suppress the growth of cancer cells with a lower concentrate | IC50 [2]: 3.31 ± 0.61 µM

OO [Compound H2O2, H2O2, reference compound]
G1 (NTUB1 cells [4]): 27.15 | G2/M (NTUB1 cells [4]): 20.18 | S (NTUB1 cells [4]): 23.84 | Sub-G1 (NTUB1 cells [4]): 9.48
